Experiment [1] relates to primary astrocytes. Description: Intracellular glycogen quantification. Type of experiment: cell-based, mouse. To be noted: 10 μM, 3 h, vs vehicle. The procedure: Primary cultures of cerebrocortical astrocytes were obtained from 1 to 2-day-old OF1 mouse pups (Charles River). Briefly, cortices were isolated and minced in small pieces under a dissecting microscope. The cells were incubated for 30 min at 37° C. in a solution containing 20 U/ml papain, 1 mM L-cysteine and 10 kU/ml DNase I. After dissociation, papain activity was stopped by the addition of fetal calf serum (FCS). Single-cell suspension was then obtained by mechanical dissociation, which consisted in cells trituration in a DMEM D7777 medium supplemented with 44 mm NaHCO3, 10 ml/L antibiotic/antimycotic solution and 10% FCS. […]
Astrocytes grown on 12-well plates were used for intracellular glycogen quantifications. […]
First, the amount of proteins in each sample was quantified to assess whether harvested astrocytes from primary cell cultures yielded enough and equivalent amounts of proteins on each replicates. Proteins were quantified using the micro BCA Protein Assay kit (Thermo Scientific), according to manufacturer's instructions. Next, intracellular glycogen concentrations were quantified using a 250 μl-aliquot of the same stimulated, thawed, and sonicated cell lysate. […] Fluorescence intensity (340 nm excitation/440 nm emission) was measured using a Safire 2 spectrophotometer. […]

Experiment [2] deals with GLUT1-DS mice. Description: Cerebral extracellular lactate and glucose biosensors, GLUT1-DS transgenic mice. Type of experiment: in vivo, mouse. Conditions: medial prefrontal cortex, 10 mg/kg and/or 100 mg/kg oral, AUC ratio vs vehicle. The text has this: (§1) Transgenic mice on 129/SvJ genetic background in which GLUT1 has been knocked-down (GLUT1-DS mice) were used (Wang et al., […], Human Molecular Genetics, 15(7)). Mating colonies were composed of wild-type female mice and GLUT1-DS male mice, or GLUT1-DS female mice and wild-type male mice. F1 pups were genotyped after ear punching at weaning using PCR to determine genotype. Mice of 2 to 3 months of age were used.
(§2) Cerebral extracellular levels of lactate and glucose were monitored in vivo in GLUT1-DS transgenic male mice and wild-type (WT) male littermates using lactate and glucose biosensors (Pinnacle Technology), according to the manufacturer's instructions. […] After surgery, mice were monitored closely and received analgesic treatment for at least 4 days. After mice had fully recovered from surgery, compounds of the invention of vehicle were administered per os as previously described and cerebral levels of extracellular lactate or glucose were dynamically recorded for 6 hours using lactate or glucose biosensors, respectively. […] Concentration of cerebral extracellular lactate or glucose was calculated from lactate or glucose probe electric signals, respectively, using post-calibration values, as described by manufacturer. […]

In experiment [3] the test system is wild-type (WT) mice. Description: Cerebral extracellular lactate and glucose biosensors, wild-type littermates. It is filed as in vivo, mouse. Conditions: medial prefrontal cortex, 10 mg/kg and/or 100 mg/kg oral, AUC ratio vs vehicle.
Description: as §1, §2

As to `COc1cc2ccnc(Nc3ccc(OC(F)(F)F)cc3)c2cc1OC` [Example 1, 6,7-dimethoxy-N-(4-(trifluoromethoxy)phenyl)isoquinolin-1-amine], the Intracellular glycogen levels entry in experiment [1] is “significantly enhances the degradation of intracellular glycogen”. In experiment [2], the “Extracellular glucose levels in the brain” value is “significantly increases” and the “Extracellular lactate levels in the brain” value is given as “significantly increases”. For the same compound, in experiment [3], the “Extracellular glucose levels in the brain” value is “significantly increases” and the “Extracellular lactate levels in the brain” value is reported as “significantly increases”.

The values are drawn from patent US11925632B2, “Isoquinoline derivatives for use in treating GLUT1 deficiency syndrome” (GLIAPHARM SA, priority 2019, dated 2024).
